Assay results from ChEMBL document CHEMBL3797117 (Bioorg Med Chem Lett, 2016).

Columns and labels:
Brain = experiment: Reduction of MDA level in Wistar rat brain at 100 uM after 30 mins in presence of ascorbic acid by UV-vis spectrophotmetry relative to control; assay type: functional; settings: 0.5 h
[1] = Antioxidant activity assessed as DPPH free radical scavenging activity at 100 uM after 40 mins by UV-Vis spectrophotometry; assay type: physicochemical
[2] = target: Aldo-keto reductase family 1 member B1 (Rattus norvegicus, UniProt P07943); experiment: Inhibition of ALR2 from rat lens using D,L-glyceraldehyde as substrate measured as absorption of NADPH for 4 mins by UV/vis spectrophotmetry
[3] = Antioxidant activity assessed as DPPH free radical scavenging activity at 100 uM after 120 mins under sunlight by UV-Vis spectrophotometry; assay type: physicochemical; settings: 2 h
[4] = Antioxidant activity assessed as DPPH free radical scavenging activity at 10 uM after 120 mins under sunlight by UV-Vis spectrophotometry; assay type: physicochemical; settings: 2 h
[5] = Antioxidant activity assessed as DPPH free radical scavenging activity at 10 uM after 30 mins under sunlight by UV-Vis spectrophotometry; assay type: physicochemical; settings: 0.5 h
[6] = Antioxidant activity assessed as DPPH free radical scavenging activity at 100 uM after 30 mins under sunlight by UV-Vis spectrophotometry; assay type: physicochemical; settings: 0.5 h
[7] = Antioxidant activity assessed as DPPH free radical scavenging activity at 1 uM after 30 mins under sunlight by UV-Vis spectrophotometry; assay type: physicochemical; settings: 0.5 h
[8] = Antioxidant activity assessed as DPPH free radical scavenging activity after 30 mins under sunlight by UV-Vis spectrophotometry; assay type: physicochemical
[9] = Antioxidant activity assessed as DPPH free radical scavenging activity at 10 uM after 40 mins by UV-Vis spectrophotometry; assay type: physicochemical
[10] = Antioxidant activity assessed as DPPH free radical scavenging activity at 1 uM after 40 mins by UV-Vis spectrophotometry; assay type: physicochemical

Row | SMILES | inhibition at 100 µM (Brain) | inhibition (INH) [1] | IC50 [2] | further results
1 | COc1ccc(CN2CN(CC(=O)O)c3ccc(OC)cc3S2(=O)=O)cc1 | 31.5% | 40.6% | 11.2 µM | –
2 | COc1ccc(CN2CN(CC(=O)O)c3ccc(Cl)cc3S2(=O)=O)cc1 | 1.6% | 5.9% | 7.5 µM | –
3 | COc1ccc2c(c1)S(=O)(=O)N(Cc1ccccc1)CN2CC(=O)O | 42.3% | 53.1% | 13.6 µM | –
4 | Cc1ccc2c(c1)S(=O)(=O)N(Cc1cc(O)ccc1F)CN2CC(=O)O | 14.1% | 32.3% | 4.8 µM | –
5 | COc1ccc(CN2CN(CC(=O)O)c3ccc(Br)cc3S2(=O)=O)cc1 | 2.6% | 6.2% | 7.2 µM | –
6 | O=C(O)CN1CN(Cc2ccccc2)S(=O)(=O)c2cc(O)ccc21 | 88% | – | 9.4 µM | inhibition (INH) [3]: 93.3%; inhibition (INH) [4]: 24.4%
7 | COc1ccc(CN2CN(CC(=O)O)c3ccc(C)cc3S2(=O)=O)cc1 | 8.4% | 3.1% | 18.2 µM | –
8 | O=C(O)CN1CN(Cc2ccc(O)cc2)S(=O)(=O)c2cc(O)ccc21 | 100% | – | 7.6 µM | inhibition (INH) [5]: 92.3%; inhibition (INH) [6]: 98%; inhibition (INH) [7]: 42.1%; EC50 [8]: 7.6 µM
9 | COc1ccc(F)c(CN2CN(CC(=O)O)c3ccc(Br)cc3S2(=O)=O)c1 | 9.55% | 44.3% | 1.8 µM | –
10 | COc1ccc(F)c(CN2CN(CC(=O)O)c3ccc(C)cc3S2(=O)=O)c1 | 4.47% | 18.9% | 3.5 µM | –
11 | Cc1ccc2c(c1)S(=O)(=O)N(Cc1ccc(O)cc1)CN2CC(=O)O | 11% | 5.2% | 5.6 µM | –
12 | CC(/C=C1\SC(=S)N(CC(=O)O)C1=O)=C\c1ccccc1 | 0% | 0% | – | –
13 | Cc1c(C)c2c(c(C)c1O)CCC(C)(C(=O)O)O2 (stereo not drawn) [TROLOX] | 100% | 97% | – | inhibition (INH) [9]: 91.1%; inhibition (INH) [10]: 32%
